Results: patent US8470810B2, “Heterocyclic compounds suitable for treating disorders that respond to modulation of the dopamine D3 receptor” (Abbott GmbH & Co. KG, priority 2004, dated 2013)

Key:
[1] = biological target: T1, human dopamine D3 receptors (Homo sapiens, UniProt P35462); test: Dopamine D3 receptor binding, displacement of [125I]-iodosulpride; conditions: for Ki: membranes of HEK-293 cells stably expressing human D3, 0.1 nM [125I]-iodosulpride, 25° C., 60 minutes; for Ki(D2)*/Ki(D3)*: selectivity ratio of the receptor binding constants D2 over D3
T1 construct: expressed in transfected cells
How it was run: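 Displacement of [125I]-iodosulpride at human D3 receptors in pH 7.4 Tris buffer with NaCl, KCl, CaCl2, MgCl2, 0.1% BSA, 10 μM quinolone and 0.1% ascorbic acid, 60 min at 25 °C, in triplicate. Bound label collected by filtration and counted; Ki from nonlinear regression of inhibition curves.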

[2] = biological target: T2, human dopamine D2L receptors (long isoform) (Homo sapiens, UniProt P14416); test: Dopamine D2L receptor binding, displacement of [125I] iodospiperone; conditions: membranes of HEK-293 cells stably expressing human D2L; 0.01 nM [125I] iodospiperone; 25° C., 60 minutes; read-out: Ki(D2)*
T2 construct: expressed in transfected cells
How it was run: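 Displacement of [125I]iodospiperone from human D2L receptors, triplicates, in 50 mM Tris pH 7.4 with 120 mM NaCl, 5 mM KCl, 2 mM CaCl2, 2 mM MgCl2, 0.1% BSA. Incubated 60 min at 25 °C, then filtered and counted by scintillation. Ki came from iterative nonlinear regression of inhibition curves.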

T1 sequence (P35462 whole entry): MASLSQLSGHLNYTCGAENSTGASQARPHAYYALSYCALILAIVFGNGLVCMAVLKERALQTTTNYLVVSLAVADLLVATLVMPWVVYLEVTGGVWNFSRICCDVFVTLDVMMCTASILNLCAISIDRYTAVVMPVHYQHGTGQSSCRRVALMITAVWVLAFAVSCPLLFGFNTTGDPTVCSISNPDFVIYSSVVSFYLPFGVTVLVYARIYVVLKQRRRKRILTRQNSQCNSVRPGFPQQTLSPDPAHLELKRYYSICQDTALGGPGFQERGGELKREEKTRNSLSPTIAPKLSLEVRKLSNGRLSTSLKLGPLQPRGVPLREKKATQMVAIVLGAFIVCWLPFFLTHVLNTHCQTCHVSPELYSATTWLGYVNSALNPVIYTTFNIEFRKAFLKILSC
T2 sequence (P14416 whole entry, canonical isoform): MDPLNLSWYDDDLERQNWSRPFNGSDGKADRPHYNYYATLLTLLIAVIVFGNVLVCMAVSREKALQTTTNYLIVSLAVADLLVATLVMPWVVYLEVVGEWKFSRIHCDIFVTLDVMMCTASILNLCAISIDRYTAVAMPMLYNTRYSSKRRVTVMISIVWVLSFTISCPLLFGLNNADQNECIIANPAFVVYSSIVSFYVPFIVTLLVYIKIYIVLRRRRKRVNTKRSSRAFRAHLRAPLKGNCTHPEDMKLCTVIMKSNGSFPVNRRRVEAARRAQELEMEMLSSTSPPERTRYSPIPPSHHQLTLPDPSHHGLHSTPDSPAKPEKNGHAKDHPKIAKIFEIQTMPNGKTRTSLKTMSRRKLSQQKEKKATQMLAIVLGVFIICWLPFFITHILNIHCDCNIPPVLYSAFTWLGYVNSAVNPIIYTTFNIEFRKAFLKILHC

Compound | Ki [1] [nM] | Ki(D2)*/Ki(D3)* [1] | Ki [2] [nM]
CC(C)c1ccc(S(=O)(=O)Nc2ccc([C@@H]3CCN(CCF)C3)cc2)cc1 [Example 96, N-{4-[(S)-1-(2-Fluoro-ethyl)-pyrrolidin-3-yl]-phenyl}-4-isopropyl-benzenesulfonamide] | 0.83 | 70 | 57.8
CCCN1CC[C@@H](c2ccc(NS(=O)(=O)c3ccc(N4CCC(F)(F)C4)cc3)cc2)C1 [Example 127, 4-(3,3-Difluoro-pyrrolidin-1-yl)-N-[4-((S)-1-propyl-pyrrolidin-3-yl)-phenyl]-benzenesulfonamide] | 0.6 | 112 | 64.7
C=CCN1CC[C@@H](c2ccc(NS(=O)(=O)c3ccc([C@@H](C)CF)cc3)cc2)C1 [Example 113, N-[4-((S)-1-Allyl-pyrrolidin-3-yl)-phenyl]-4-((R)-2-fluoro-1-methyl-ethyl)benzenesulfonamide] | 0.49 | 86 | 42.2
CCCN1CC[C@@H](c2ccc(NS(=O)(=O)c3ccc(OCc4ccccc4)cc3)cc2)C1 [Example 121, 4-Benzyloxy-N-[4-((S)-1-propyl-pyrrolidin-3-yl)-phenyl]-benzenesulfonamide] | 3.7 | 44 | 163
O=S(=O)(Nc1ccc([C@@H]2CCN(CCCF)C2)cc1)c1ccc(OC(F)(F)F)cc1 [Example 114, N-{4-[(S)-1-(3-Fluoro-propyl)-pyrrolidin-3-yl]-phenyl}-4-trifluoromethoxy-benzenesulfonamide] | 4.2 | 111 | 464
CCCN1CC[C@@H](c2ccc(NS(=O)(=O)c3ccc(OC)cc3)cc2)C1 [Example 12, 4-Methoxy-N-[4-((S)-1-propyl-pyrrolidin-3-yl)-phenyl]-benzenesulfonamide] | 3 | 43 | 131
